The values that follow come from publication PMC6534241 (Drug Delivery, 2019).

For data set [1] the following is noted: ref Hu et al., 2012; cited from earlier work.
Data set [2] in a line: Solubility of drugs in oils/excipients. The data set is classed as physicochemical. Particulars: shake flask, 25 °C, 48 h, HPLC, n = 3; Figure S1.

Take `CC(=O)O[C@@]12CO[C@@H]1C[C@H](O)[C@@]1(C)C(=O)[C@H](O)C3=C(C)[C@@H](OC(=O)[C@H](O)[C@@H](NC(=O)OC(C)(C)C)c4ccccc4)C[C@@](O)([C@@H](OC(=O)c4ccccc4)[C@H]21)C3(C)C` [DTX, Docetaxel]: the “oral bioavailability of DTX” value in data set [1] was around 5%. Besides, in data set [2], the “Solubility among the oils employed (ranking)” value was “highest solubility of 131.62 ± 17.68 in Capryol 90”.
